Here are results for one molecule from patent publication EP0393973A1, “Antitumor Agent Indicated for lung cancer” (priority 1989, dated 1990).

The subject of one data set is chicken embryos. To be noted: cited from earlier work.
The next data set deals with platelet aggregation. The experiment in a line: Suppression of platelet aggregation. As to conditions: substance per se.
Data set [1] can be described thus: Observation of gastric mucosa after oral dosing of normal rats. As to conditions: rat, in vivo. An excerpt: It was therefore assumed that a massive dose of citral or lemongrass oil which contains citral as its principal constituent would adversely affect normal cells. • (2) Instead of dosing lemongrass oil directly to normal rats, lemongrass oil or citral in β-cyclodextrin clathrates was mixed with feed.

For the next data set, the system named is sarcoma 180. To be noted: oral administration to mice bearing sarcoma 180; cited from earlier work.

For the molecule `CC(C)=CCCC(C)=CC=O` [Citral, citral], the teratogenicity result with chicken embryos is listed as “teratogenic”. In addition, the platelet aggregation result in the data set with platelet aggregation is listed as “strongly suppresses”. In addition, the “findings on the gastric mucosa” value in data set [1] is “petechiae were observed on the gastric mucosa”. The “growth of cancer cells” value in the data set on sarcoma 180 is listed as “suppresses growth of cancer cells”.
